SMILES strings stand for the structures. Values joined by “and” are separate entries in the source; they are usually repeats but may differ in a detail not shown here. Identical values can stand only once. Results filed as inconclusive are left out.

We go through 14 compounds from PubChem BioAssay AID194 (DTP/NCI, 2004).

The experiment relates to BDF1 mice, B16 melanoma s.c., survival/tumor T/C. In words: NCI In Vivo Anticancer Drug Screen. Data for tumor model B16 Melanoma (subcutaneous) in B6D2F1 (BDF1) mice. The protocol: The antitumor activity of compounds was measured in mice bearing transplantable tumors. Survival or tumor size were measured and the results are expressed as the measurement made in the treated group (T) divided by the measurement made in the vehicle treated control group (C). The tumor model used in this assay is B16 Melanoma (subcutaneous) in B6D2F1 (BDF1) mice

Setting [1] is: endpoint: median survival time, dose: 4.0 mg/kg/injection, schedule: Q01DX009 (ip), vehicle: saline with Tween-80, higher = longer survival.

Take `NCCc1ccc(O)c(O)c1`: the T/C reads like this: (endpoint: median survival time, dose: 100.0 mg/kg/injection, schedule: Q01DX009 (ip), vehicle: saline, higher = longer survival) 107 % of control; (endpoint: median survival time, dose: 200.0 mg/kg/injection, schedule: Q01DX009 (ip), vehicle: saline, higher = longer survival) 106 % of control; (endpoint: median survival time, dose: 400.0 mg/kg/injection, schedule: Q01DX009 (ip), vehicle: saline, higher = longer survival) 97 % of control; (endpoint: median survival time, dose: 600.0 mg/kg/injection, schedule: Q01DX009 (ip), vehicle: saline, higher = longer survival) 110 % of control.
As for `COc1cc([C@@H]2c3cc4c(cc3[C@@H](OC3OC5COC(C)OC5C(O)C3O)[C@H]3COC(=O)[C@H]23)OCO4)cc(OC)c1O` (stereo partly specified), the T/C by setting is: (endpoint: median survival time, dose: 2.0 mg/kg/injection, schedule: Q01DX009 (ip), vehicle: saline, higher = longer survival) 169 % of control; (endpoint: median survival time, dose: 3.0 mg/kg/injection, schedule: Q01DX009 (ip), vehicle: saline, higher = longer survival) 117 % of control; (endpoint: median survival time, dose: 34.0 mg/kg/injection, schedule: Q01DX001 (ip), vehicle: saline, higher = longer survival) 117 % of control; (endpoint: median survival time, dose: 40.0 mg/kg/injection, schedule: Q04DX003 (ip), vehicle: saline, higher = longer survival) 156 % of control; (endpoint: median survival time, dose: 50.0 mg/kg/injection, schedule: Q01DX001 (ip), vehicle: saline, higher = longer survival) 117 % of control.
Consider `COC(=O)[C@@H]1c2cc3c(c(O)c2[C@@H](OC2OC(C)C(OC)C(C)(OC)C2OC)C[C@]1(C)O)C(=O)c1c(O)cc2c(c1C3=O)O[C@H]1O[C@]2(C)[C@H](O)[C@@H](N(C)C)[C@@H]1O` (stereo partly specified), for which the T/C runs as follows: (endpoint: median survival time, dose: 0.5 mg/kg/injection, schedule: Q01DX009 (ip), vehicle: other, higher = longer survival) 90 % of control; (endpoint: median survival time, dose: 125.0 micrograms/kg/injection, schedule: Q01DX009 (ip), vehicle: saline + alcohol, higher = longer survival) 118 % of control; (endpoint: median survival time, dose: 500.0 micrograms/kg/injection, schedule: Q01DX009 (ip), vehicle: saline + alcohol, higher = longer survival) 118 % of control; (endpoint: median survival time, dose: 1000.0 micrograms/kg/injection, schedule: Q01DX009 (ip), vehicle: saline + alcohol, higher = longer survival) 109 % of control.
With `CN(N=O)C(N)=O`, the T/C (endpoint: median survival time, dose: 3.12 mg/kg/injection, schedule: Q01DX009 (ip), vehicle: saline, higher = longer survival) was 97 % of control; the T/C (endpoint: median survival time, dose: 6.25 mg/kg/injection, schedule: Q01DX009 (ip), vehicle: saline, higher = longer survival) was 105 % of control; the T/C (endpoint: median survival time, dose: 12.5 mg/kg/injection, schedule: Q01DX009 (ip), vehicle: saline, higher = longer survival) is 109 % of control.
Consider `CC1=C(/C=C/C(C)=C/C=C/C(C)=C/C(=O)O)C(C)(C)CCC1`, for which, under setting [1], the T/C is 88 % of control.
For `O=P1(N(CCCl)CCCl)NCCCO1` (stereo unspecified), the T/C (endpoint: median survival time, dose: 15.0 mg/kg/injection, schedule: Q04DX003 (ip), vehicle: saline, higher = longer survival) was 111 % of control; the T/C (endpoint: median survival time, dose: 30.0 mg/kg/injection, schedule: Q04DX003 (ip), vehicle: saline, higher = longer survival) was 123 % of control; the T/C (endpoint: median survival time, dose: 60.0 mg/kg/injection, schedule: Q04DX003 (ip), vehicle: saline, higher = longer survival) is 171 % of control; the T/C (endpoint: median survival time, dose: 120.0 mg/kg/injection, schedule: Q04DX003 (ip), vehicle: saline, higher = longer survival) was 193 % of control; the T/C (endpoint: median survival time, dose: 200.0 mg/kg/injection, schedule: Q01DX001 (ip), vehicle: saline, higher = longer survival) was 158 % of control; the T/C (endpoint: median tumor weight (est.), dose: 50.0 mg/kg/injection, schedule: Q01DX009 (ip), vehicle: saline, higher = larger tumour) was 19 % of control and 40 % of control. Further, the T/C (endpoint: median tumor weight (est.), dose: 100.0 mg/kg/injection, schedule: Q01DX009 (ip), vehicle: saline, higher = larger tumour) was 19 % of control.
As for `O=c1n(CC2CO2)c(=O)n(CC2CO2)c(=O)n1CC1CO1` (stereo unspecified), the T/C runs as follows: (endpoint: median survival time, dose: 20.0 mg/kg/injection, schedule: Q01DX011 (ip), vehicle: saline, higher = longer survival) 109 % of control; (endpoint: median survival time, dose: 40.0 mg/kg/injection, schedule: Q01DX011 (ip), vehicle: saline, higher = longer survival) 155 % of control.
`O=C1C=CC(=O)N1c1ccc(Cl)cc1`: the T/C was 123 % of control (endpoint: median survival time, dose: 1.25 mg/kg/injection, schedule: Q01DX009 (ip), vehicle: Klucel (hydroxypropylcellulose) (HPC), higher = longer survival); 102 % of control (endpoint: median survival time, dose: 5.0 mg/kg/injection, schedule: Q01DX009 (ip), vehicle: Klucel (hydroxypropylcellulose) (HPC), higher = longer survival); 89 % of control (endpoint: median survival time, dose: 10.0 mg/kg/injection, schedule: Q01DX009 (ip), vehicle: Klucel (hydroxypropylcellulose) (HPC), higher = longer survival); 98 % of control (endpoint: median survival time, dose: 20.0 mg/kg/injection, schedule: Q01DX009 (ip), vehicle: Klucel (hydroxypropylcellulose) (HPC), higher = longer survival).
In the case of `Nc1c(Cl)c(Cl)nc(C(=O)O)c1Cl`, the T/C (endpoint: median survival time, dose: 3.12 mg/kg/injection, schedule: Q02DX009 (ip), vehicle: Klucel (hydroxypropylcellulose) (HPC), higher = longer survival) is 108 % of control; the T/C (endpoint: median survival time, dose: 6.25 mg/kg/injection, schedule: Q01DX015 (sc), vehicle: other, higher = longer survival) was 105 % of control; the T/C (endpoint: median survival time, dose: 6.25 mg/kg/injection, schedule: Q02DX009 (ip), vehicle: Klucel (hydroxypropylcellulose) (HPC), higher = longer survival) was 97 % of control; the T/C (endpoint: median survival time, dose: 12.5 mg/kg/injection, schedule: Q01DX015 (sc), vehicle: other, higher = longer survival) is 105 % of control; the T/C (endpoint: median survival time, dose: 25.0 mg/kg/injection, schedule: Q01DX015 (sc), vehicle: other, higher = longer survival) is 101 % of control; the T/C (endpoint: median survival time, dose: 50.0 mg/kg/injection, schedule: Q02DX009 (ip), vehicle: Klucel (hydroxypropylcellulose) (HPC), higher = longer survival) was 94 % of control. The T/C was 90 % of control (endpoint: median survival time, dose: 100.0 mg/kg/injection, schedule: Q02DX009 (ip), vehicle: Klucel (hydroxypropylcellulose) (HPC), higher = longer survival) and 87 % of control (endpoint: median survival time, dose: 200.0 mg/kg/injection, schedule: Q02DX009 (ip), vehicle: Klucel (hydroxypropylcellulose) (HPC), higher = longer survival).
For `Nc1nc(=S)c2ncn(C3CC(O)C(CO)O3)c2[nH]1` (stereo unspecified), the T/C is, setting by setting: under setting [1], 109 % of control; (endpoint: median survival time, dose: 8.0 mg/kg/injection, schedule: Q01DX009 (ip), vehicle: saline with Tween-80, higher = longer survival) 91 % of control; (endpoint: median survival time, dose: 16.0 mg/kg/injection, schedule: Q01DX009 (ip), vehicle: saline with Tween-80, higher = longer survival) 95 % of control; (endpoint: median survival time, dose: 32.0 mg/kg/injection, schedule: Q01DX009 (ip), vehicle: saline with Tween-80, higher = longer survival) 91 % of control; (endpoint: median survival time, dose: 64.0 mg/kg/injection, schedule: Q01DX009 (ip), vehicle: saline with Tween-80, higher = longer survival) 123 % of control.
Consider `CC1(C)N=C(N)N=C(N)N1c1ccc(CNC(=O)Nc2cccc(S(=O)(=O)F)c2)cc1`, for which the T/C runs as follows: (endpoint: median survival time, dose: 100.0 mg/kg/injection, schedule: Q04DX003 (ip), vehicle: saline, higher = longer survival) 100 % of control; (endpoint: median survival time, dose: 225.0 mg/kg/injection, schedule: Q04DX003 (ip), vehicle: saline, higher = longer survival) 122 % of control.
As to `COC1C(O)C(C)OC(OC2C(Oc3cccc4c(O)c5c(=O)oc6ccc(C)c7c(=O)oc(c34)c5c67)OC(C)C(O)C2O)C1O` (stereo unspecified), the T/C by setting is: (endpoint: median survival time, dose: 6.25 mg/kg/injection, schedule: Q01DX009 (ip), vehicle: other, higher = longer survival) 95 % of control; (endpoint: median survival time, dose: 12.5 mg/kg/injection, schedule: Q01DX009 (ip), vehicle: other, higher = longer survival) 104 % of control; (endpoint: median survival time, dose: 25.0 mg/kg/injection, schedule: Q01DX009 (ip), vehicle: other, higher = longer survival) 100 % of control; (endpoint: median survival time, dose: 50.0 mg/kg/injection, schedule: Q01DX009 (ip), vehicle: other, higher = longer survival) 101 % of control.
Take `CCO/C=C1\SC(=S)N(c2ccc(C(=O)O)cc2)C1=O`: the T/C reads like this: (endpoint: median survival time, dose: 3.12 mg/kg/injection, schedule: Q01DX009 (ip), vehicle: Klucel (hydroxypropylcellulose) (HPC), higher = longer survival) 110 % of control; (endpoint: median survival time, dose: 6.25 mg/kg/injection, schedule: Q01DX009 (ip), vehicle: Klucel (hydroxypropylcellulose) (HPC), higher = longer survival) 101 % of control; (endpoint: median survival time, dose: 12.5 mg/kg/injection, schedule: Q01DX009 (ip), vehicle: Klucel (hydroxypropylcellulose) (HPC), higher = longer survival) 118 % of control; (endpoint: median survival time, dose: 50.0 mg/kg/injection, schedule: Q01DX009 (ip), vehicle: Klucel (hydroxypropylcellulose) (HPC), higher = longer survival) 121 % of control; (endpoint: median survival time, dose: 100.0 mg/kg/injection, schedule: Q01DX009 (ip), vehicle: Klucel (hydroxypropylcellulose) (HPC), higher = longer survival) 121 % of control.
As to `CO[C@@]12[C@H](COC(N)=O)C3=C(C(=O)C(C)=C(N)C3=O)N1C[C@@H]1N[C@@H]12`, the T/C (endpoint: median survival time, dose: 0.25 mg/kg/injection, schedule: Q01DX009 (ip), vehicle: Klucel (hydroxypropylcellulose) (HPC), higher = longer survival) was 95 % of control; the T/C (endpoint: median survival time, dose: 0.5 mg/kg/injection, schedule: Q01DX009 (ip), vehicle: Klucel (hydroxypropylcellulose) (HPC), higher = longer survival) is 110 % of control; the T/C (endpoint: median survival time, dose: 2.0 mg/kg/injection, schedule: Q01DX009 (ip), vehicle: Klucel (hydroxypropylcellulose) (HPC), higher = longer survival) is 154 % of control; the T/C (endpoint: median tumor weight (est.), dose: 0.25 mg/kg/injection, schedule: Q01DX009 (ip), vehicle: saline, higher = larger tumour) was 77 % of control; the T/C (endpoint: median tumor weight (est.), dose: 0.5 mg/kg/injection, schedule: Q01DX009 (ip), vehicle: saline, higher = larger tumour) was 101 % of control; the T/C (endpoint: median tumor weight (est.), dose: 1.0 mg/kg/injection, schedule: Q01DX009 (ip), vehicle: saline, higher = larger tumour) was 70 % of control. Besides, for the setting “endpoint: median tumor weight (est.), dose: 2.0 mg/kg/injection, schedule: Q01DX009 (ip), vehicle: saline, higher = larger tumour”, the T/C was 30 % of control.
